In patent publication US10426769B2, “Pharmaceutical composition for preventing and treating obesity or liver diseases, containg TLR7 agonist” (KNOTUS CO., LTD., priority 2015, dated 2019):

How the values were obtained:
[1] = test system: LC3A/B and IGF-1; assay: LC3A/B and IGF-1 protein levels in UFAs-treated mouse hepatocytes; type: cell-based; conditions: proteins isolated from hepatocytes, imiquimod treatment
Protocol: (§1) The imiquimod purchased in Example 1 was tested in cells. Mouse hepatocytes were obtained by cellizing liver tissues isolated from normal C57BL6/J mice and TLR7 KO mice lacking the TLR7 gene and fat accumulation was induced by treatment with 10 mM of unsaturated fatty acid (UFAs) mixed with arachidonic acid (Sigma, USA) and oleic acid (Sigma, USA) 1:1.
(§2) Cells were incubated at 37° C., 5% of CO2. DMEM (Dulbecco's modified Eagle's medium) containing 10% fetal bovine serum (FBS) and antibiotic (penicillin/streptomycin; Gibco, USA) was used as the cell culture medium. Every two days, the surface of the cultured cells was washed with phosphate buffered saline (PBS) and cells were isolated by treatment with 0.5% trypsin and then subcultured.
(§3) The imiquimod was treated at the concentration of 10 μg/ml 1 hour before the start of the experiment. UFAs were then added and the fat accumulation was assessed after 48 hours.
In FIG. 3, expression of autophagosome associated with congenital immunity and IGF-1 associated with fatty liver development was compared and evaluated. According to recently published international journals, It has been reported that as the expression of LC3A/B, an indicator of autophagosome increases, fatty liver improves, and as IGF-1 is inhibited, the fatty liver improves.

[2] = test system: Mouse hepatocytes; assay: Fat accumulation in UFAs-treated mouse hepatocytes (oil-red-o staining, absorbance at 540 nm); type: cell-based; conditions: imiquimod 10 μg/ml 1 hour before UFAs, 48 hours, vs group without treatment
Protocol: as §1, §2, §3
In order to confirm that imiquimod inhibits the fat accumulation effect in hepatocytes, the cells were cultured for 48 hours after the reagent treatment according to the method of Example 2 above. The cells were stained with an oil-red-o reagent (Lifeline Cell Technology, Carlsbad, Calif., USA) and the accumulation of fat was visually evaluated (FIG. 1).

[3] = test system: SREBP-1, FAS, aP2 and PPARγ gene expression; assay: Real time RT-PCR of fat-related genes in UFAs-treated mouse hepatocytes; type: cell-based; conditions: imiquimod 10 μg/ml
Protocol: as §1, §2, §3
To determine the level of RNA expression at the gene level of fatty acid synthase (FAS), SREBP-1 (sterol regulatory element binding protein-1), PPARγ (peroxisome proliferator-activated receptor), and aP2 (fatty acid binding protein 4), real time RT-PCR (ABI Step One Plus Sequence System, Applied Biosystems, Singapore) was performed. The PPARγ and FAS are directly related to fat metabolism, and since the metabolism is regulated by the aP2 and SREBP-1 factor, it was determined whether imiquimod affects the factor.
From the above results, it was confirmed that imiquimod inhibited lipid accumulation in hepatocytes through inhibition of SREBP-1, FAS, aP2 and PPARγ gene expression.

[4] = test system: LC3A/B and IGF-1; assay: LC3A/B and IGF-1 protein expression in liver tissue of fatty liver mice; type: in vivo, mouse; conditions: fatty liver induced by UFAs, imiquimod 0.1 mg/kg twice a week, proteins from liver tissue
Protocol: (§4) C57BL6/J mice (Daehan Biolink, Daejeon, Korea) that induced obesity with feed containing 45% UFAs for 8 weeks and a knockout mouse (TLR7 KO) from Dr. Akira (Osaka University, Suita, Japan) in which TLR7 is not inherently present, were used. For this purpose, imiquimod was injected twice a week at a concentration of 0.1 mg/kg, while fatty liver model was made by feeding only high unsaturated fat diet (UFAs diet with 45% of the calories, Daehan Biolink, Daejeon, Korea) for 8 weeks.
Autophagosome associated with congenital immunity, and expression of IGF-1 associated with fatty liver development were compared and evaluated with proteins isolated from liver tissue. Similar to the protein isolated from the hepatocytes, and expression of TLR7 and its downstream transcript Myd88 was also confirmed, and as a result, we confirmed that imiquimod affects the expression of LC3A/B, an autophagosome marker, and IGF-1, a hepatocyte-producing protein, through TLR7 hyperactivity.

[5] = test system: C57BL6/J mice; assay: Serological analysis of fatty liver mice (AST, ALT, triglyceride, total cholesterol); type: in vivo, mouse; conditions: UFAs feed 8 weeks, imiquimod 0.1 mg/kg twice a week
Protocol: as §4

[6] = test system: C57BL6/J mice; assay: Triglyceride and cholesterol in liver tissue of fatty liver mice (ELISA); type: in vivo, mouse; conditions: UFAs feed 8 weeks, imiquimod 0.1 mg/kg twice a week
Protocol: as §4
The liver tissues separated from the mouse were finely crushed to prepare analytical samples, and the levels of triglyceride and cholesterol were measured using Enzyme Linked ImmunoSorbent Assay (ELISA) (FIG. 7).

[7] = test system: SREBP-1, FAS, PPAR-γ, and aP2; assay: Real-time RT-PCR of fat-induced genes in liver tissue of fatty liver mice; type: in vivo, mouse; conditions: UFAs feed 8 weeks, imiquimod 0.1 mg/kg twice a week, liver mRNA
Protocol: as §4
Fat-induced genes such as SREBP-1, FAS, PPAR-γ, and aP2 were increased in liver tissues from liver-derived mice fed UFAs compared to the control group.

[8] = test system: C57BL6/J mice; assay: Fatty liver in mice fed high unsaturated fat diet, liver tissue and H & E staining; type: in vivo, mouse; conditions: 45% UFAs diet 8 weeks, imiquimod 0.1 mg/kg injected twice a week
Protocol: as §4
As a result of H & E staining of tissue sections, balloon, a sign of fat accumulation between cells and cells, was found in UFAs fed mice, which was confirmed to be improved by imiquimod injection.

Question: For CC(C)Cn1cnc2c(N)nc3ccccc3c21 [imiquimod], which IGF-1 protein level ([1]; IGF-1 increased by UFAs) is on record?
Answer: Its IGF-1 protein level is “decreases”.

Question: And the “LC3A/B (indicator of autophagosome) protein level” value ([1]; LC3A/B inhibited by UFAs)?
Answer: Its value is “significant increases”.

Question: What about the “level of fat (absorbance at 540 nm)” value [2] of the same molecule?
Answer: The value was “lower than that in the group without treatment”.

Question: What about the “expression of FAS” value [3] of the same molecule?
Answer: Its value is “inhibited the expression”.

Question: And the “expression of PPARγ” value [3]?
Answer: Its value is “inhibited the expression”.

Question: What about the “expression of SREBP-1” value [3] of the same molecule?
Answer: The value was “inhibited the expression”.

Question: And the “expression of aP2” value [3]?
Answer: The value was “inhibited the expression”.

Question: And the “IGF-1 expression in liver tissue” value [4]?
Answer: The value was “decreased”.

Question: What about the “LC3A/B expression in liver tissue” value [4] of the same molecule?
Answer: The value was “significantly increased”.

Question: What about the “serum ALT level” value [5] of the same molecule?
Answer: The value was “significantly decreased”.

Question: What about the “serum AST level” value [5] of the same molecule?
Answer: Its value is “significantly decreased”.

Question: What about the serum cholesterol level [5] of the same molecule?
Answer: Its serum cholesterol level is “significantly reduced”.

Question: What about the serum triglyceride level [5] of the same molecule?
Answer: The serum triglyceride level was “significantly reduced”.

Question: And the “cholesterol level in liver tissue” value [6]?
Answer: Its value is “significant reductions”.

Question: And the “triglyceride level in liver tissue” value [6]?
Answer: Its value is “significant reductions”.

Question: And the “FAS gene expression in liver tissue” value [7]?
Answer: The value was “significantly reduced”.

Question: And the “PPAR-γ gene expression in liver tissue” value [7]?
Answer: Its value is “significantly reduced”.

Question: And the “SREBP-1 gene expression in liver tissue” value [7]?
Answer: The value was “significantly reduced”.

Question: And the “aP2 gene expression in liver tissue” value [7]?
Answer: The value was “significantly reduced”.

Question: What about the “balloon (sign of fat accumulation), H & E staining of tissue sections” value [8] of the same molecule?
Answer: Its value is “improved”.

Question: And the “development of fatty liver (evaluation of liver tissue)” value [8]?
Answer: The value was “significant inhibition”.
